These results are taken from patent US20060100291A1, “Antibacterial compounds” (priority 2001, published 2006).

Values after ≈ are worked out from the molar mass of the structure shown. “Also recorded” adds a separate entry of the source. Like-named read-outs stand apart in the source and are kept apart here.

The test system of data set [1] is Bacillus subtilis (ATCC strain 19659). Description: Disc diffusion assay. The format is cell-based. The following applies: for zone of inhibition at 60 µg/disc / BS activity: width of zone of growth inhibition: disc assay dosed at 60 μg/disc, 24 h; for zone of inhibition at 60 µg/disc: read-out: BS activity: width of zone of growth inhibition. On the procedure: The compounds of Examples 1 to 7 were also tested against another Gram-positive bacterium, Bacillus subtilis (ATCC strain 19659), in disc diffusion assays. […] The positive control in this assay was the clinically proven antimicrobial agent chloramphenicol (30 μg/disc), which gave a 12 mm zone.
On the technique in general: A growth-free zone around the sample is the usual read-out of agar diffusion tests.

The subject of data set [2] is Methicillin Resistant Staphylococcus aureus (MRSA) (strain 1126). Description: MIC in Mueller Hinton broth, serial doubling dilutions. The class given is cell-based. On the procedure: Minimum inhibitory concentrations [MIC] were tested in Mueller Hinton [MH] broth. The human pathogen Methicillin Resistant Staphylococcus aureus (MRSA) (strain 1126) was provided by the University of Otago. Glass vials (30 mL) containing MH broth (10 mL) were inoculated from an actively growing culture and incubated overnight at 37° C. A standardized procedure to suspend each compound in MH broth was used. Each compound (5 mg) was dissolved in ethanol (1 mL). MH broth (9 mL) was then added to the ethanol containing the compound, resulting in stock solution concentrations of 500 μg /mL.
The MIC for each compound was determined by carrying out 3 replicate serial dilutions in Nunc® 48 well microtiter plates. To test the MICs, each compound stock solution was vigorously mixed before I mL was dispensed aseptically by pipette into 3 of the 6 first wells of a microtiter plate. MH broth (0.5 mL) was dispensed into all wells of the microtiter plate except the first row. Serial doubling dilutions were carried out through 12 wells (1½ microtiter plates). Mixing was carried out by repeated pipetting of 100 μL amounts. 500 μL was discarded from the last wells to conserve the […] compound concentration. Each well was inoculated with an aliquot (25 μL) of MRSA suspension diluted by 10^−2. All test and control microtiter plates were incubated at 37° C. and read after 48 h and 72 h.

For data set [3] the following is noted: background statement, organism not given; cited from earlier work.
Data set [4] concerns Enterococcus and S. aureus strains tested in Table 2. Description: Bacteriostatic/bactericidal concentrations (MIC/MBC) over the strains of Table 2. The class given is cell-based. The following applies: all strains of Table 2; read-out: Bacteriocidal concentration (MBC). As for the experimental part: (§1) Minimum inhibitory concentrations (MICs) were determined using a broth microdilution method. Bacterial isolates were inoculated into Todd-Hewitt broth (THB) and incubated at 37 C with shaking (200 rpm) for 18 h. Overnight cultures were diluted to an OD of 0.01 (at […], 1 cm light path) to give a final inoculum for broth microdilution of OD 0.005. Doubling dilutions of the test compounds were prepared in THB in microtitre plates. Tween 80 (Sigma) was added at a final concentration of 14 % to enhance solubility. The range of concentrations tested (with doubling dilutions) was 16 μg/mL to 0.063 μg/mL. Microtitre plates were incubated at 37 ° C. for 18 h with gentle shaking. Plates were read using a microplate reader (Multiskan Ascent, Labsystems), measuring the OD at 595 nm. Minimum bactericidal concentrations (MBCs) were determined by placing 5 μL of culture from wells without growth onto THB plates and incubating at 37° C. for 18 h. The MBC was the lowest concentration without growth from the drop of culture.

Data set [5] has as its system Swiss male mice (Mus musculus). Description: Acute toxicity in mice, intraperitoneal injection. The note with it: for acute toxic effects: ip in cottonseed oil, up to 400 mg/kg, observed 6 h plus 18 h. The format is in vivo. On the procedure:
Compound I has been tested in mice for acute toxicity.
A single trial was completed using twenty-five Swiss male mice (Mus musculus), weighing 20 g±2 g. Mice were selected by gender and weight, individually identified and randomly placed in 5 cages of 5 mice each. Mice were injected intraperitoneally with one of five levels of antibiotic [0 (control), 1, 2, 4 and 8 mg/ml]. Cottonseed oil was used as a carrier solution for the test substance. One mL samples were mixed before being injected using 1.0 ml syringes and 21G needles. Mice were observed continuously for 6 hours and any deaths or adverse symptoms recorded. This initial hour observation period was subsequently followed by another 18-hour monitoring period. […] This was also the case for mice injected solely with cottonseed oil. This is in direct contrast to weekly calibration assays using the toxic control saxitoxin dihydrochloride.

Data set [6] deals with listera monocytogenes. Description: MIC against Listeria, by similar methods. The format is cell-based.
For data set [7], the system named is S. aureus AS92/349 Mupirocin resistant. Description: Broth microdilution MIC (THB). The following applies: three experiments. The format is cell-based. On the procedure: as §1
A general note: Dilution methods test growth across graded concentrations, often in twofold steps.

Data set [8] deals with S. aureus OUM1126 Oxacillin resistant (MRSA). Description: Broth microdilution MIC (THB). The format is cell-based. The note with it: Staphylococcus aureus, three experiments. As for the experimental part: as §1
Data set [9] deals with Enterococcus faecalis CD2-49 Gentamicin resistant. Description: Broth microdilution MIC (THB). The following applies: E. faecalis CD2-49 gentamicin resistant, three experiments. The format is cell-based. On the procedure:
as §1

The subject of data set [10] is S. aureus ST94/1208 Oxacillin/Gentamicin resistant (cMRSA). Description: Broth microdilution MIC (THB). The class given is cell-based. The following applies: Staphylococcus aureus, three experiments. On the procedure:
as §1

In data set [11] the test system is Enterococcus faecalis ATCC29212 Wild-type (fully susceptible). Description: Broth microdilution MIC (THB). The format is cell-based. The note with it: three experiments. On the procedure:
as §1

Data set [12] concerns E. faecium AR99/118 Ampicillin resistant. Description: Broth microdilution MIC (THB). The class given is cell-based. The note with it: Enterococcus faecium, three experiments. As for the experimental part:
as §1

Data set [13] relates to S. aureus OUM1127 Erythromycin resistant. Description: Broth microdilution MIC (THB). The format is cell-based. The note with it: Staphylococcus aureus, three experiments. As for the experimental part: as §1
In data set [14] the test system is S. aureus ATCC25923 Wild-type (fully susceptible). Description: Broth microdilution MIC (THB). The class given is cell-based. The note with it: three experiments. On the procedure: as §1
Data set [15] concerns S. aureus PC-3 Vancomycin/Oxacillin resistant (GISA). Description: Broth microdilution MIC (THB). The class given is cell-based. The following applies: Staphylococcus aureus, three experiments. As for the experimental part:
as §1

The subject of data set [16] is Enterococcus faecalis 8A-25 Vancomycin resistant (VRE, vanA). Description: Broth microdilution MIC (THB). The class given is cell-based. The following applies: E. faecalis 8A-25 vancomycin resistant (VRE, vanA), three experiments. On the procedure: as §1
Where [17] appears, read: MH broth, 37° C., read after 48 h and 72 h, University of Otago strain 1126, read-out: MRSA activity: upper and lower limits of Minimum Inhibitory Concentration.

Usually melting point stands for the temperature, or range, at which the solid turns liquid. The term zone of inhibition denotes the size of the clear area around the sample on an inoculated plate.

Turning to `CCCCCCCCCCCCCCCC(=O)C1=C(O)C(C)(C)C(=O)C(C)(C)C1=O` [Example 3, 5-hydroxy-4(1-oxohexadecyl)-2,2,6,6-tetramethyl-4-cyclohexene-1,3-dione], the melting point was determined as 39 °C. In addition, the zone of inhibition at 60 µg/disc in data set [1] (Bacillus subtilis, ATCC19659) turned out to be 0 mm. Besides, in data set [2] (setting [17]), the MIC lay within 2 to 7.8 µg/mL (≈ 4.75 to 18.5 µM).

Take `CCCCCCCCCCCC(=O)C1=C(O)C(C)(C)C(=O)C(C)(CC=C(C)C)C1=O` (centres unmarked) [Example 7, 5-hydroxy-4-(1-oxododecyl)-2-prenyl-2,6,6trimethyl-4-cyclohexene-1,3-dione]: the zone of inhibition at 60 µg/disc in data set [1] (Bacillus subtilis, ATCC19659) was found to be 0 mm. Further, the MIC in data set [2] (setting [17]) was in the range of 1 to 2 µg/mL (≈ 2.39 to 4.78 µM).

Take `O=C(N[C@H](CO)[C@H](O)c1ccc([N+](=O)[O-])cc1)C(Cl)Cl` [chloramphenicol, reference compound]: the zone of inhibition at 30 µg/disc in [1] (Bacillus subtilis, ATCC19659, positive control, 30 μg/disc, read-out: width of zone of inhibition) worked out at 12 mm.

Consider `CN[C@H](CC(C)C)C(=O)N[C@H]1C(=O)N[C@@H](CC(N)=O)C(=O)N[C@H]2C(=O)N[C@H]3C(=O)N[C@H](C(=O)N[C@H](C(=O)O)c4cc(O)cc(O)c4-c4cc3ccc4O)[C@H](O)c3ccc(c(Cl)c3)Oc3cc2cc(c3O[C@@H]2O[C@H](CO)[C@@H](O)[C@H](O)[C@H]2O[C@H]2C[C@](C)(N)[C@H](O)[C@H](C)O2)Oc2ccc(cc2Cl)[C@H]1O` [vancomycin, reference compound], for which the MIC in data set [2] (read-out: MRSA activity: upper and lower limits of Minimum Inhibitory Concentration) was 1.6 to 3.1 µg/mL (≈ 1.1 to 2.14 µM); in [3], “approximately 2 μg/ml”.

Take `CC1(C)C(=O)C(C2(C=O)CCCCC2)=C(O)C(C)(C)C1=O` [Example 4, 5-hydroxy-4(1-oxomethylcyclohexyl)-2,2,6,6-tetramethyl-4-cyclohexene-1,3dione]: the melting point is 47.8 °C. For the same compound, the zone of inhibition at 60 µg/disc in data set [1] (Bacillus subtilis, ATCC19659) was determined as 0 mm. In addition, the MIC in [2] (setting [17]) lay in the range of 15.6 to 62.5 µg/mL (≈ 53.4 to 214 µM).

Turning to `CCCCCCCCCC(=O)C1=C(O)C(C)(C)C(=O)C(C)(C)C1=O` [Example 2, 5-hydroxy-4-(1-oxodecyl)-2,2,6,6,-tetramethyl-4-cyclohexene-1,3-dione], the “BS activity: width of zone of growth inhibition” value in [1] is listed as 7 mm.

As to `CCCCCCCCCCCC(=O)C1=C(O)C(C)(C)C(=O)C(C)(C)C1=O` [Example 1, 5-hydroxy-4-(1-oxododecyl)-2,2,6,6-tetramethyl-4-cyclohexene-1,3-dione], the MBC in data set [4] was not below 8 µg/mL. In addition, the zone of inhibition at 60 µg/disc in data set [1] (Bacillus subtilis, ATCC19659) stood at 3 mm. For the same compound, the MIC was 0.5 to 1 µg/mL (≈ 1.37 to 2.74 µM) in data set [2] (setting [17]); less than 3.9 µg/mL in [6]; 1 µg/mL (≈ 2.74 µM) in data set [7] (Staphylococcus aureus, read-out: MIC); 2 µg/mL (≈ 5.49 µM) in data set [7]; 1 µg/mL (≈ 2.74 µM) in [8]; 0.5 µg/mL (≈ 1.37 µM) in data set [9]. Besides, the MIC in data set [9] (Enterococcus faecalis, read-out: MIC) was found to be 1 µg/mL (≈ 2.74 µM); in data set [10], 1 µg/mL (≈ 2.74 µM); in [11] (E. faecalis ATCC29212 wild-type), 0.5 µg/mL (≈ 1.37 µM); in data set [11] (Enterococcus faecalis, ATCC29212, E. faecalis ATCC29212 wild-type, read-out: MIC) it was 1 µg/mL (≈ 2.74 µM); in data set [12] it was 2 µg/mL (≈ 5.49 µM); in data set [13], 1 µg/mL (≈ 2.74 µM). Moreover, the MIC in data set [14] (S. aureus ATCC25923 wild-type) was 1 µg/mL (≈ 2.74 µM); in data set [14] (Staphylococcus aureus, ATCC25923, S. aureus ATCC25923 wild-type, read-out: MIC), 2 µg/mL (≈ 5.49 µM); in [15], 2 µg/mL (≈ 5.49 µM); in data set [16], 1 µg/mL (≈ 2.74 µM). Also, the mouse deaths entry in data set [5] (ip in cottonseed oil, 1, 2, 4 and 8 mg/ml, 1 mL) is given as “no mouse deaths were recorded”. The acute toxic effects entry in data set [5] (listed as Compound I) is reported as “no toxic effects; also recorded: no adverse toxic symptoms”; in data set [5] (listed as Example I), “not toxic to mice”.

Regarding `CCCCCCCCCCCC(=O)C1=C(O)C(CC)(CC)C(=O)C(CC)(CC)C1=O` [Example 6], in [1], the “BS activity: width of zone of growth inhibition” value came to 0 mm.

Take “5-hydroxy-4-(1-oxopropylcyclohexl)-2,6,6-tetramethyl-4-cyclohexene-1,3-dione [Example 5]”: in data set [1], the “BS activity: width of zone of growth inhibition” value worked out at 12 mm.
